ChEMBL document CHEMBL1157631, “Discovery and SAR of thiazolidine-2,4-dione analogues as insulin-like growth factor-1 receptor (IGF-1R) inhibitors via hierarchical virtual screening” (J Med Chem, 2010)
Active and inactive are the calls of the source. No cut-off for these calls is given here.

What was measured:
[1] = biological target: Insulin-like growth factor 1 receptor (Homo sapiens, UniProt P08069); assay: Inhibition of IGF1R by ELISA
Insulin receptor = Insulin receptor (Homo sapiens, UniProt P06213); assay: Inhibition of IR by ELISA
[2] = biological target: Proto-oncogene tyrosine-protein kinase Src (Homo sapiens) (UniProt P12931); assay: Inhibition of c-Src at 10 uM
MCF7 = assay: Antiproliferative activity against human MCF7 cells after 72 hrs by SRB assay; assay type: functional, cell-based; conditions: MCF7, 72 h
[3] = Dissociation constant, pKa of the compound; assay type: physicochemical

Sequence of Insulin-like growth factor 1 receptor (P08069 31-736 limits assumed): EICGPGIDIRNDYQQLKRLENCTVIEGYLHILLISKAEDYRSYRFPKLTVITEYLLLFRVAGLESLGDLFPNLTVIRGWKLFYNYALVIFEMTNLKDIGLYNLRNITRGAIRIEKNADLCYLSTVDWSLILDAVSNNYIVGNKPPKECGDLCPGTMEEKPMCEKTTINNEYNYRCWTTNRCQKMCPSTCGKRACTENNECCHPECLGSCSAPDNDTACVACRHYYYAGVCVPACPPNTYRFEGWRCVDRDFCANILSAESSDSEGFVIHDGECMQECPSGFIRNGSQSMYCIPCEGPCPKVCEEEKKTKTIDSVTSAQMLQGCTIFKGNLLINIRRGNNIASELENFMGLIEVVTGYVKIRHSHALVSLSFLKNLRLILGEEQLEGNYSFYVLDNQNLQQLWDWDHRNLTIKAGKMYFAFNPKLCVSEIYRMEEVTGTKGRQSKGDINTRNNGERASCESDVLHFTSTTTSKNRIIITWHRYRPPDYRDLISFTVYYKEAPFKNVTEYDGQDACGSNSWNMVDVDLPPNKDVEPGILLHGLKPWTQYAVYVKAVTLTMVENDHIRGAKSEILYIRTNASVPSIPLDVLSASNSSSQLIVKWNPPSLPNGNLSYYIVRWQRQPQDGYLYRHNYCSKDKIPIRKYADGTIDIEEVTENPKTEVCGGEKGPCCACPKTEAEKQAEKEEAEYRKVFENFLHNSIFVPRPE
Sequence of Insulin-like growth factor 1 receptor (P08069 741-1367 limits assumed): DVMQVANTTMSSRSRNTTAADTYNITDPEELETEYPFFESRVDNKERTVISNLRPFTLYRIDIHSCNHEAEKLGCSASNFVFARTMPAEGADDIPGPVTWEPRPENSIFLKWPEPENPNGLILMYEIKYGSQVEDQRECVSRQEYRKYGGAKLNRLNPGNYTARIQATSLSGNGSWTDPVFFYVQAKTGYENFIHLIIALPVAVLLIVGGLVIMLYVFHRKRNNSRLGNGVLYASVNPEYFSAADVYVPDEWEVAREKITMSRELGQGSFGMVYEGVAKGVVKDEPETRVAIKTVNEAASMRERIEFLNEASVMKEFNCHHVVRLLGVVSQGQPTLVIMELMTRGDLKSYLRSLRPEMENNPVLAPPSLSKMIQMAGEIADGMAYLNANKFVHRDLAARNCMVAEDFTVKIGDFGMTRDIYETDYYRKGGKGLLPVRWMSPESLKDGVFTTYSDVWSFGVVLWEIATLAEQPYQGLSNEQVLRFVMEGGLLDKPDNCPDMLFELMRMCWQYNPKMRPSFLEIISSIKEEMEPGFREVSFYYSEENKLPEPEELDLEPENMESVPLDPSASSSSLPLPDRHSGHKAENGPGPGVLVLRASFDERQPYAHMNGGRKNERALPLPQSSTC
Sequence of Insulin receptor (P06213 28-758 limits assumed): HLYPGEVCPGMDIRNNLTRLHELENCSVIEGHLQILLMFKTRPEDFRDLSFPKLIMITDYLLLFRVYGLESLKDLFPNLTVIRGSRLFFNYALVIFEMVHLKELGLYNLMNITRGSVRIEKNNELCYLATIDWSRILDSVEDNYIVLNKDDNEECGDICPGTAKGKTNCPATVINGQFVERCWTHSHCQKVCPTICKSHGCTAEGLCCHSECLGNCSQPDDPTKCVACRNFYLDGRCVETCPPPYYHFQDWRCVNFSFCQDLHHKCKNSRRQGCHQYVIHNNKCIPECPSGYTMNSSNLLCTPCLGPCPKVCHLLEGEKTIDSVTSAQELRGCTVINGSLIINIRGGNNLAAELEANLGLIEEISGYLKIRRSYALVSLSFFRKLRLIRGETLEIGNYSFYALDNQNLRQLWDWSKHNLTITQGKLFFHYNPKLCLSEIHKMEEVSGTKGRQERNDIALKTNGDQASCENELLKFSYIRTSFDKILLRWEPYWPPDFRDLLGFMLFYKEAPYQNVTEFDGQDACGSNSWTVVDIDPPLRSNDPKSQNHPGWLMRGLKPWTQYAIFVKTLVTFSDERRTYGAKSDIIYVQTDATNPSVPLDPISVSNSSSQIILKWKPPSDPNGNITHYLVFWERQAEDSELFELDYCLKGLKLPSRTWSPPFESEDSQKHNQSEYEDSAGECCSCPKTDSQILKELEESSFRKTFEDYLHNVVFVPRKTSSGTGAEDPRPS
Sequence of Insulin receptor (P06213 763-1382 limits assumed): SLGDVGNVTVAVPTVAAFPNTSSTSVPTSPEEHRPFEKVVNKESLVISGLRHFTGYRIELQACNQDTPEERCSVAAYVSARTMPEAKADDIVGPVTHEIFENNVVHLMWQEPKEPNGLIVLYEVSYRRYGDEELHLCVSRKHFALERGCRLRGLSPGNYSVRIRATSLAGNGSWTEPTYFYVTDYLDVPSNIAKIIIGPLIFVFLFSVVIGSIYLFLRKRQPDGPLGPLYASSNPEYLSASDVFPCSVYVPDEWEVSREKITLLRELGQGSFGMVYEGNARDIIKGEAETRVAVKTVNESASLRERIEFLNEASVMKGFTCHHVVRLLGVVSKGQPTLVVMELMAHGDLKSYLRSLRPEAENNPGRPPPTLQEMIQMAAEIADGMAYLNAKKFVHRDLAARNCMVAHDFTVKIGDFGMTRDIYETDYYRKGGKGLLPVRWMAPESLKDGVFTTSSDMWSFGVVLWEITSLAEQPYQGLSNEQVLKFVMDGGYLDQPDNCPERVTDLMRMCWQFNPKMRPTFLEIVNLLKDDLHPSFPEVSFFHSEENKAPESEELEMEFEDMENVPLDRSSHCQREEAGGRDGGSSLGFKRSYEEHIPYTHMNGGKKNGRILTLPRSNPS
Sequence of Proto-oncogene tyrosine-protein kinase Src (Homo sapiens) (P12931 2-536 limits assumed): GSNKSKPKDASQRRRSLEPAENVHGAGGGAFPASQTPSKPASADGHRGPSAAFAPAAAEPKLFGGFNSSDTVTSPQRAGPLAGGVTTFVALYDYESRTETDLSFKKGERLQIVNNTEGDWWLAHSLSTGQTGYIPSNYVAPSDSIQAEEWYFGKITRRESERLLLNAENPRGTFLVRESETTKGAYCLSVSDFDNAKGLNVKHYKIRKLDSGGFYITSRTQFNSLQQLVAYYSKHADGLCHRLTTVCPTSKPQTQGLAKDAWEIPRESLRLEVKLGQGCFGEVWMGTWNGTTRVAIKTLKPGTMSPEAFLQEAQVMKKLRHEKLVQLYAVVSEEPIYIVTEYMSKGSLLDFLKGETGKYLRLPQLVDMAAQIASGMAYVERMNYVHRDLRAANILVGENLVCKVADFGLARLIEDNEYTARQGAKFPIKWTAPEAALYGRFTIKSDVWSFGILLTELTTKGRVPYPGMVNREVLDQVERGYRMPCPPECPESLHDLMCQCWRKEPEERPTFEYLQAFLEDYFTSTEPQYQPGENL

IC50 [1] [µM] | IC50 (Insulin receptor) [µM] | Activity [2] | IC50 (MCF7) [µM] | pKa [3] | Structure (SMILES)
11.1 | > 100 | – | – | – | CCc1ccc(/C=C2\SC(=O)NC2=O)cc1
> 100 | – | – | – | – | COc1cc(/C=C2/SC(=O)NC2=O)ccc1OCc1ccccc1
– | > 100 | Active | – | – | COc1cc(Br)cc(/C=C2\SC(=O)NC2=O)c1O
4.9 | > 100 | – | 55.8 | – | O=C1NC(=O)/C(=C\c2cccc([N+](=O)[O-])c2)S1
> 100 | – | – | – | – | C=CCc1cc(/C=C2\SC(=O)NC2=O)cc(OC)c1OC
8.8 | > 100 | – | 50.8 | – | O=C1NC(=O)/C(=C\c2ccc(Cl)c(Cl)c2)S1
15 | > 100 | – | > 100 | – | O=C1NC(=O)/C(=C/c2ccc(Cl)cc2Cl)S1
0.057 | 28 | – | 25.3 | – | O=C1NC(=O)/C(=C\c2ccc(-c3cccc(Br)c3)o2)S1
> 100 | – | – | – | – | CCCCOc1ccc(/C=C2\SC(=O)NC2=O)cc1
0.28 | > 100 | – | 16.9 | – | O=C1NC(=O)/C(=C\c2ccc(-c3ccc(F)c(Cl)c3)o2)S1
– | – | – | 81.3 | – | O=C1NC(=O)/C(=C/c2ccc(-c3ccc(O)c(C(=O)O)c3)o2)S1
> 100 | – | – | – | – | O=C1NC(=O)/C(=C\c2ccc(N3CCCC3)c(F)c2)S1
5.3 | > 100 | – | – | – | COc1cc(/C=C2/SC(=O)NC2=O)cc(OC)c1O
0.319 | – | – | – | – | CCC(=O)c1cccc(Nc2ccc3c(c2)/C(=C/Nc2ccc(N4CCN(C)CC4)cc2)C(=O)NC3=O)c1
6.6 | > 100 | – | > 100 | – | O=C1NC(=O)/C(=C/c2ccccc2F)S1
6.3 | > 100 | – | – | – | Cc1ccc(-c2ccc(/C=C3/SC(=O)NC3=O)o2)c(Br)c1
> 100 | – | – | – | – | CCOc1cc(/C=C2\SC(=O)NC2=O)c(Br)cc1OC
0.009 | – | – | – | – | Cc1ccc(N2CCC(N3CCN(C(=O)N4CCOCC4)CC3)CC2)c2[nH]c(-c3c(N[C@@H](CO)Cc4ccccc4Br)cc[nH]c3=O)nc12
– | – | – | 41.9 | – | O=C1NC(=S)S/C1=C\c1ccc(-c2ccc(C(=O)O)cc2)o1
– | > 100 | – | – | – | CCOc1cc(Br)cc(/C=C2\SC(=O)NC2=O)c1O
– | > 100 | – | 87.3 | – | CCOc1ccc(/C=C2/SC(=O)NC2=O)cc1OC

IC50 [1] [µM] | IC50 (Insulin receptor) [µM] | Activity [2] | IC50 (MCF7) [µM] | pKa [3] | Structure (SMILES)
6.3 | > 100 | – | 50.8 | – | COc1cc(/C=C2/SC(=O)NC2=O)cc(I)c1O
10 | > 100 | – | > 100 | – | CCOc1cc2c(cc1/C=C1\SC(=O)NC1=O)OCO2
63.9 | – | – | – | – | CCOc1ccc(/C=C2\SC(=O)NC2=O)cc1OCC(C)C
– | – | – | 14.8 | 7.9 | O=C1NC(=O)/C(=C\c2ccc(-c3ccc(Cl)c(Cl)c3)o2)S1
> 100 | – | – | – | – | O=C1NC(=O)/C(=C\c2ccccc2OCc2ccc(Cl)cc2Cl)S1
6.4 | 65.3 | – | – | – | COc1c(Br)cc(/C=C2\SC(=O)NC2=O)cc1Br
– | – | – | 17.3 | – | O=C1NC(=O)/C(=C\c2ccc(-c3ccc(Cl)cc3Cl)o2)S1
6.7 | > 100 | – | 47.3 | – | O=C1NC(=O)/C(=C\c2ccc(-c3ccc(Br)cc3)o2)S1
3.3 | > 100 | – | 24.8 | – | O=C1NC(=O)/C(=C\c2cc3c(cc2Br)OCO3)S1
5.2 | > 100 | – | 56.3 | – | CCOc1cc(/C=C2/SC(=O)NC2=O)cc(Br)c1O
> 100 | – | – | – | – | O=C1NC(=O)/C(=C\c2ccc(OCc3ccccc3Cl)cc2)S1
– | – | – | > 100 | – | O=C1NC(=S)S/C1=C\c1ccc(-c2ccccc2Cl)o1
9 | > 100 | – | > 100 | – | CCC(C)COc1ccccc1/C=C1/SC(=O)NC1=O (stereo not given)
1.6 | > 100 | – | 25.2 | – | O=C1NC(=O)/C(=C/c2cccc(OCc3ccc(Cl)cc3Cl)c2)S1
0.4 | > 100 | – | 36.9 | – | O=C1NC(=O)/C(=C\c2ccc(-c3ccc(F)cc3)o2)S1
49.8 | – | – | – | – | CCOc1cc(/C=C2/SC(=O)NC2=O)cc(Cl)c1OCC
> 100 | – | – | – | – | CCCOc1c(Br)cc(/C=C2\SC(=O)NC2=O)cc1OCC
8.6 | > 100 | – | > 100 | – | CCOc1cccc(/C=C2/SC(=O)NC2=O)c1O
> 100 | – | – | – | – | COc1cc(/C=C2\SC(=O)NC2=O)ccc1OCc1ccc(Cl)cc1Cl
3.4 | > 100 | – | 21.5 | – | O=C1NC(=O)/C(=C\c2ccc(-c3cccc(Cl)c3Cl)o2)S1
